Tests used:
[1] = test system: rabbit serum obtained by immunizing a rabbit with the SARS-CoV strain Frankfurt 1; type: binding; design: Binding of a rabbit serum to linear peptides / Binding of a rabbit serum to looped peptides / Rabbit serum linear peptides / Rabbit serum looped peptides / Binding of a rabbit serum to linear peptides of protein N of SARS-CoV Urbani (Rabbit serum linear peptides) / Binding of a rabbit serum to looped/cyclic peptides of protein N of SARS-CoV Urbani (Rabbit serum looped peptides): unit not given here
[2] = test system: recombinant human anti-SARS-CoV antibody 03-018; type: binding; design: Binding of antibody 03-018 to linear peptides of the N protein of SARS-CoV Urbani / Binding of antibody 03-018 to looped/cyclic peptides of the N protein of SARS-CoV Urbani: unit not given here
[3] = test system: antibodies in sera from SARS patients (sera 1a, 1b, 2, 6, 37, 62, London, SARS-yellow, SARS-green); type: binding, human; design: Binding of serum 6 to linear peptides of protein X1 of SARS-CoV Urbani / Binding of serum 37 to linear peptides of protein X1 of SARS-CoV Urbani / Binding of serum 6 to looped/cyclic peptide (PEPSCAN-ELISA) / Binding of serum 37 to looped/cyclic peptide (PEPSCAN-ELISA) / Binding of serum 37 to looped/cyclic peptides of protein X1 of SARS-CoV Urbani / Binding of serum 6 to linear peptides of protein X2 / Binding of serum 37 to linear peptides of protein X2 / Binding of serum 37 to looped/cyclic peptides of protein X2 of SARS-CoV Urbani / Binding of serum 6 to linear peptides of protein M of SARS-CoV Urbani / Binding of serum 37 to linear peptides of protein M of SARS-CoV Urbani / Binding of serum 6 to looped/cyclic peptides of protein M of SARS-CoV Urbani / Binding of serum 37 to looped/cyclic peptides of protein M of SARS-CoV Urbani / Binding of serum 6 to linear peptides of protein X3 of SARS-CoV Urbani / Binding of serum 37 to linear peptides of protein X3 of SARS-CoV Urbani / Binding of serum 37 to looped/cyclic peptides of protein X3 of SARS-CoV Urbani / Binding of serum 6 to linear peptides of protein X4 of SARS-CoV Urbani / Binding of serum 37 to linear peptides of protein X4 of SARS-CoV Urbani / Binding of serum 37 to looped/cyclic peptides of protein X4 of SARS-CoV Urbani / Binding of serum 6 to linear peptides of protein X5 of SARS-CoV Urbani / Binding of serum 37 to linear peptides of protein X5 of SARS-CoV Urbani / Binding of serum 37 to looped/cyclic peptides of protein X5 of SARS-CoV Urbani / Binding of serum 6 to linear peptides of protein N of SARS-CoV Urbani / Binding of serum 37 to linear peptides of protein N of SARS-CoV Urbani / Binding of serum 6 to linear peptide (PEPSCAN-ELISA) / Binding of serum 1a to looped/cyclic peptides of protein N of SARS-CoV Urbani / Binding of serum 1b to looped/cyclic peptides of protein N of SARS-CoV Urbani / Binding of serum 2 to looped/cyclic peptides of protein N of SARS-CoV Urbani / Binding of serum 6 to looped/cyclic peptides of protein N of SARS-CoV Urbani / Binding of serum 37 to looped/cyclic peptides of protein N of SARS-CoV Urbani / Binding of serum 62 to looped/cyclic peptides of protein N of SARS-CoV Urbani / Binding of serum London to looped/cyclic peptides of protein N of SARS-CoV Urbani / Binding of serum SARS-green to looped/cyclic peptides of protein N of SARS-CoV Urbani: unit not given here
[4] = test system: control sera (pooled serum of ten healthy LUMC hospital workers; commercial negative donor pooled serum from the Dutch bloodbank); type: binding, human; design: Binding of Control serum LUMC to linear peptides / Binding of Control serum Blood-bank to linear peptides / Binding of Control serum LUMC to looped peptides / Binding of Control Serum Blood-Bank to Looped peptides / Binding of Control serum LUMC to linear peptides of the protein M of SARS-CoV Urbani / Binding of Control serum Blood-bank to linear peptides of the protein M of SARS-CoV Urbani / Binding of Control serum LUMC to looped peptides of the protein M of SARS-CoV Urbani / Binding of Control Serum Blood-Bank to Looped peptides of the protein M of SARS-CoV Urbani: unit not given here

Sequence	Binding of a rabbit serum to linear peptides of protein N of SARS-CoV Urbani (Rabbit serum linear peptides) [1]	Binding of a rabbit serum to looped/cyclic peptides of protein N of SARS-CoV Urbani (Rabbit serum looped peptides) [1]	Binding of serum 1a to linear peptides of protein N of SARS-CoV Urbani [3]	Binding of serum 1a to looped/cyclic peptides of protein N of SARS-CoV Urbani [3]	Binding of serum 1b to linear peptides of protein N of SARS-CoV Urbani [3]	Binding of serum 1b to looped/cyclic peptides of protein N of SARS-CoV Urbani [3]	Binding of serum 2 to linear peptides of protein N of SARS-CoV Urbani [3]	Binding of serum 2 to looped/cyclic peptides of protein N of SARS-CoV Urbani [3]	Binding of serum 6 to linear peptides of protein N of SARS-CoV Urbani [3]	Binding of serum 6 to looped/cyclic peptides of protein N of SARS-CoV Urbani [3]	Binding of serum 37 to linear peptides of protein N of SARS-CoV Urbani [3]	Binding of serum 37 to looped/cyclic peptides of protein N of SARS-CoV Urbani [3]	Binding of serum 62 to linear peptides of protein N of SARS-CoV Urbani [3]	Binding of serum 62 to looped/cyclic peptides of protein N of SARS-CoV Urbani [3]	Binding of serum London to linear peptides of protein N of SARS-CoV Urbani [3]	Binding of serum London to looped/cyclic peptides of protein N of SARS-CoV Urbani [3]	Binding of serum SARS-green to linear peptides of protein N of SARS-CoV Urbani [3]	Binding of serum SARS-green to looped/cyclic peptides of protein N of SARS-CoV Urbani [3]	Binding of serum SARS-yellow to linear peptides of protein N of SARS-CoV Urbani [3]	Binding of serum SARS-yellow to looped/cyclic peptides of protein N of SARS-CoV Urbani [3]	other results
RRPQGLPNNTASWFT	0.1	0.4	0.2	0.4	0.1	0.3	0.1	0.5	0.1	0.3	0.6	0.6	0.6	0.5	0.4	0.4	0.2	0.6	0.6	0.5	Binding of antibody 03-018 to linear peptides of the N protein of SARS-CoV Urbani [2]: 0.1; Binding of antibody 03-018 to looped/cyclic peptides of the N protein of SARS-CoV Urbani [2]: 0.2; Binding of Control Serum Blood-Bank to Looped peptides [4]: 0.7; Binding of Control serum Blood-bank to linear peptides [4]: 0.5; Binding of Control serum LUMC to linear peptides [4]: 0.7; Binding of Control serum LUMC to looped peptides [4]: 0.6
RRVRGGDGKMKELSP	0.2	0.4	0.3	0.3	0.2	0.1	0.4	0.3	0.2	0.2	0.7	0.4	0.8	0.3	0.6	0.4	0.4	0.1	0.8	0.3	Binding of antibody 03-018 to linear peptides of the N protein of SARS-CoV Urbani [2]: 0.1; Binding of antibody 03-018 to looped/cyclic peptides of the N protein of SARS-CoV Urbani [2]: 0.2; Binding of Control Serum Blood-Bank to Looped peptides [4]: 0.6; Binding of Control serum Blood-bank to linear peptides [4]: 0.9; Binding of Control serum LUMC to linear peptides [4]: 0.9; Binding of Control serum LUMC to looped peptides [4]: 0.6
RSAPRITFGGPTDST	0.3	0.7	0.2	0.3	0.1	0.2	0.1	0.3	0.1	0.2	0.6	0.5	0.6	0.4	0.5	0.3	0.4	0.4	0.5	0.5	Recognition of the peptide by antibody 03-018 [2]: recognized; Binding of Control Serum Blood-Bank to Looped peptides [4]: 0.6; Binding of Control serum Blood-bank to linear peptides [4]: 0.6; Binding of Control serum LUMC to linear peptides [4]: 0.5; Binding of Control serum LUMC to looped peptides [4]: 0.6

Source: patent US20070128217A1 (priority 2003, published 2007)
